Test results reported in the NIST ThermoML archive (doi:10.1016/j.fluid.2012.08.002).

Experiment: xn = mol fraction of the nth substance listed
Details: 101 kPa, Liquid; for speed of sound: Sing-around technique in a fixed-path interferometer; for mass density: Vibrating tube method

CCCCCCn1cc[n+](C)c1.F[P-](F)(F)(F)(F)F [1-hexyl-3-methylimidazolium hexafluorophosphate] + COCCO
Details	mass density [kg/m3]	speed of sound [m/s]
288.15 K, x1 = 0.0503	1020.76	1399.2
288.15 K, x1 = 0.1092	1067.45	1411
288.15 K, x1 = 0.2006	1121.27	1419.8
288.15 K, x1 = 0.3032	1165.23	1422.9
288.15 K, x1 = 0.4013	1197.38	1424.7
288.15 K, x1 = 0.5017	1223.62	1427.5
288.15 K, x1 = 0.6054	1245.52	1433.9
288.15 K, x1 = 0.7024	1262.69	1434.3
288.15 K, x1 = 0.8019	1277.93	1436.7
288.15 K, x1 = 0.9094	1292.27	1442.3
293.15 K, x1 = 0.0503	1016.22	1382.5
293.15 K, x1 = 0.1092	1062.97	1394.8
293.15 K, x1 = 0.2006	1116.89	1404.6
293.15 K, x1 = 0.3032	1160.9	1408.6
293.15 K, x1 = 0.4013	1193.08	1411.3
293.15 K, x1 = 0.5017	1219.44	1414.5
293.15 K, x1 = 0.6054	1241.45	1421.2
293.15 K, x1 = 0.7024	1258.71	1421.4
293.15 K, x1 = 0.8019	1273.92	1424
293.15 K, x1 = 0.9094	1288.2	1428.6
298.15 K, x1 = 0.0503	1011.72	1365.8
298.15 K, x1 = 0.1092	1058.47	1378.9
298.15 K, x1 = 0.2006	1112.46	1389.6
298.15 K, x1 = 0.3032	1156.56	1394.5
298.15 K, x1 = 0.4013	1188.79	1398
298.15 K, x1 = 0.5017	1215.23	1401.7
298.15 K, x1 = 0.6054	1237.4	1407.8
298.15 K, x1 = 0.7024	1254.67	1408.9
298.15 K, x1 = 0.8019	1269.91	1411.5
298.15 K, x1 = 0.9094	1284.2	1415.8
303.15 K, x1 = 0.0503	1007.16	1349.2
303.15 K, x1 = 0.1092	1053.96	1362.9
303.15 K, x1 = 0.2006	1108.02	1374.7
303.15 K, x1 = 0.3032	1152.21	1380.7
303.15 K, x1 = 0.4013	1184.47	1385.2
303.15 K, x1 = 0.5017	1210.98	1389
303.15 K, x1 = 0.6054	1233.3	1395.1
303.15 K, x1 = 0.7024	1250.63	1396.7
303.15 K, x1 = 0.8019	1265.91	1399.4
303.15 K, x1 = 0.9094	1280.2	1403.3
308.15 K, x1 = 0.0503	1002.49	1332.7
308.15 K, x1 = 0.1092	1049.43	1347.1
308.15 K, x1 = 0.2006	1103.58	1359.9
308.15 K, x1 = 0.3032	1147.84	1367.3
308.15 K, x1 = 0.4013	1180.37	1372.3
308.15 K, x1 = 0.5017	1206.95	1376.4
308.15 K, x1 = 0.6054	1229.34	1382.4
308.15 K, x1 = 0.7024	1246.77	1384.5
308.15 K, x1 = 0.8019	1262.04	1387.4
308.15 K, x1 = 0.9094	1276.2	1391.3
313.15 K, x1 = 0.0503	997.703	1316.2
313.15 K, x1 = 0.1092	1044.81	1331.4
313.15 K, x1 = 0.2006	1099.15	1345.2
313.15 K, x1 = 0.3032	1143.59	1353.7
313.15 K, x1 = 0.4013	1176	1359.4
313.15 K, x1 = 0.5017	1202.67	1364
313.15 K, x1 = 0.6054	1225.28	1370
313.15 K, x1 = 0.7024	1242.9	1372.4
313.15 K, x1 = 0.8019	1258.23	1375.7
313.15 K, x1 = 0.9094	1272.23	1379.5
318.15 K, x1 = 0.0503	993.086	1299.8
318.15 K, x1 = 0.1092	1040.18	1316
318.15 K, x1 = 0.2006	1094.74	1330.8
318.15 K, x1 = 0.3032	1139.13	1340.3
318.15 K, x1 = 0.4013	1171.68	1346.7
318.15 K, x1 = 0.5017	1198.47	1351.6
318.15 K, x1 = 0.6054	1221.29	1357.5
318.15 K, x1 = 0.7024	1239.06	1360.5
318.15 K, x1 = 0.8019	1254.4	1364.1
318.15 K, x1 = 0.9094	1268.47	1368.1

CCCCCCn1cc[n+](C)c1.F[B-](F)(F)F [1-hexyl-3-methylimidazolium tetrafluoroborate] + COCCO
Details	mass density [kg/m3]	speed of sound [m/s]
288.15 K, x1 = 0.053	996.474	1409.6
288.15 K, x1 = 0.1088	1021	1431.9
288.15 K, x1 = 0.2016	1052.83	1457.6
288.15 K, x1 = 0.3088	1077.88	1478.5
288.15 K, x1 = 0.4106	1093.47	1491.7
288.15 K, x1 = 0.5023	1103.61	1503.4
288.15 K, x1 = 0.5962	1112.5	1512.3
288.15 K, x1 = 0.7006	1122.49	1520
288.15 K, x1 = 0.7995	1132.99	1529.1
288.15 K, x1 = 0.9099	1145.62	1540
293.15 K, x1 = 0.053	991.791	1392.4
293.15 K, x1 = 0.1088	1016.45	1415.8
293.15 K, x1 = 0.2016	1048.37	1442.3
293.15 K, x1 = 0.3088	1073.64	1463.8
293.15 K, x1 = 0.4106	1089.74	1477.6
293.15 K, x1 = 0.5023	1100.22	1490.1
293.15 K, x1 = 0.5962	1109.27	1499.5
293.15 K, x1 = 0.7006	1119.44	1508.2
293.15 K, x1 = 0.7995	1130.02	1518.1
293.15 K, x1 = 0.9099	1142.38	1527.2
298.15 K, x1 = 0.053	987.817	1375.8
298.15 K, x1 = 0.1088	1012.38	1399.8
298.15 K, x1 = 0.2016	1044.22	1427.1
298.15 K, x1 = 0.3088	1069.47	1449.5
298.15 K, x1 = 0.4106	1085.86	1463.8
298.15 K, x1 = 0.5023	1096.66	1476.9
298.15 K, x1 = 0.5962	1106.01	1487.1
298.15 K, x1 = 0.7006	1116.37	1496.5
298.15 K, x1 = 0.7995	1126.8	1505.8
298.15 K, x1 = 0.9099	1138.92	1514.7
303.15 K, x1 = 0.053	983.383	1359.3
303.15 K, x1 = 0.1088	1008.21	1384
303.15 K, x1 = 0.2016	1040.16	1411.9
303.15 K, x1 = 0.3088	1065.51	1435.5
303.15 K, x1 = 0.4106	1081.93	1450.1
303.15 K, x1 = 0.5023	1092.85	1463.9
303.15 K, x1 = 0.5962	1102.49	1474.7
303.15 K, x1 = 0.7006	1113.08	1484.5
303.15 K, x1 = 0.7995	1123.59	1493.6
303.15 K, x1 = 0.9099	1135.86	1502.4
308.15 K, x1 = 0.053	979.101	1342.8
308.15 K, x1 = 0.1088	1004.1	1368.2
308.15 K, x1 = 0.2016	1036.07	1397
308.15 K, x1 = 0.3088	1061.47	1421.5
308.15 K, x1 = 0.4106	1077.94	1436.9
308.15 K, x1 = 0.5023	1089.12	1451
308.15 K, x1 = 0.5962	1098.81	1462.2
308.15 K, x1 = 0.7006	1109.56	1472.2
308.15 K, x1 = 0.7995	1120.09	1481.5
308.15 K, x1 = 0.9099	1132.31	1490.3
313.15 K, x1 = 0.053	974.997	1326.5
313.15 K, x1 = 0.1088	999.809	1352.3
313.15 K, x1 = 0.2016	1031.82	1382.1
313.15 K, x1 = 0.3088	1057.43	1407.4
313.15 K, x1 = 0.4106	1073.99	1424.1
313.15 K, x1 = 0.5023	1085.32	1438.4
313.15 K, x1 = 0.5962	1095.09	1449.7
313.15 K, x1 = 0.7006	1105.89	1460.1
313.15 K, x1 = 0.7995	1116.48	1469.5
313.15 K, x1 = 0.9099	1128.74	1478.5
318.15 K, x1 = 0.053	970.346	1309.8
318.15 K, x1 = 0.1088	995.598	1336.2
318.15 K, x1 = 0.2016	1027.87	1367.3
318.15 K, x1 = 0.3088	1053.41	1393.3
318.15 K, x1 = 0.4106	1070.02	1411.6
318.15 K, x1 = 0.5023	1080.99	1425.6
318.15 K, x1 = 0.5962	1090.77	1437.4
318.15 K, x1 = 0.7006	1101.5	1448.2
318.15 K, x1 = 0.7995	1112.28	1457.7
318.15 K, x1 = 0.9099	1124.84	1466.9
